The values below come from patent US20030073721A1, “Peptide beta-strand mimics based on 1,2-dihydro-3(6H)-pyridinone” (THE REGENTS OF THE UNIVERSITY OF CALIFORNIA, a California …, priority 2001, published 2003).

In this assay the target is homodimer. In words: Dimer dissociation constant from concentration dependence of NH chemical shifts (NMR). The format is binding. The source says:
Dimerization of the Ach-containing peptide analogs of this invention can be detected by observing changes in NH chemical shifts as a function of concentration. For a dimerization process with dissociation constant Kd and NMR chemical shifts δmono and δdi, respectively, the observed chemical shift, δobs, as a function of concentration c is expressed by the following equation: [formula]
Experimental data were obtained for Ac-Phe-Ach-Leu-Ach-Ile, N-methyl amide and for its corresponding sarcosine-containing peptide corresponding to Ac-Phe-Sar-Leu-Sar-Ile, N-methyl amide, as well as for various other Ach-containing peptide analogs of this invention terminating in carboxylic acid groups rather than N-methyl amide groups, all in CDCl3 or CD3OH/CDCl3 at 25° C.
To distinguish between the two species, the dissociation constants of dimers of each species were determined.

Where two headings read alike, the source gives them in different places.

Turning to `CCC(C)C(NC1=CC(=O)CN(C(=O)C(CC(C)C)NC2=CC(=O)CN(C(=O)C(Cc3ccccc3)NC(C)=O)C2)C1)C(=O)NC` (stereo not drawn) [Ac-Phe-Ach-Leu-Ach-Ile-NHMe, Ac-Phe-Ach-Leu-Ach-Ile, N-Methyl Amide], the Kd (0% CD3OH/CDCl3 (pure CDCl3), 25° C., read-out: Dissociation constant Kd (dimer)) stood at 400 µM.

Take “Ac-Leu-Ach-Val-Ach-Leu-Ach-Phe-OH [Ach-containing peptide analog (heptamer) terminating in carboxylic acid group]”: under “15% CD3OH/CDCl3, 25° C., read-out: Dissociation constant Kd (dimer)”, the Kd came to 1500 µM.

Consider “Phe-Gly-Ser-D-Pro-Ala-Leu-Ach-Ile [hybrid 1]”, for which the Kd (5% CD3OH/CDCl3, concentration range 0.6-42 mM, read-out: Dimer dissociation constant) is 25000 µM.

Consider “Ac-Phe-Ach-Leu-Ach-Val-OH [Ach-containing peptide analog terminating in carboxylic acid group]”, for which the Kd is 90 µM (2.5% CD3OH/CDCl3, 25° C., read-out: Dissociation constant Kd (dimer)); 8000 µM (5% CD3OH/CDCl3, 25° C., read-out: Dissociation constant Kd (dimer)); roughly 0.13 µM (pure chloroform, extrapolated from Kd vs CD3OH concentration, read-out: Dissociation constant in pure chloroform, extrapolation of the line in FIG. 1).
